Data: US11390644B2, “Raman tag” (Purdue Research Foundation, priority 2014, dated 2022)
Entries after “also recorded” stand apart in the source; their conditions may differ.

Experiments:
[1] = Photostability under continuous SRS / TPEF image acquisition; assay type: physicochemical; settings: 50 mM solution, acquired continuously for 150 s, one acquisition every 30 s
Description: FIG. 14. The photostability of PhDY-Chol and the photo-bleaching of BODIPY-Chol. The SRS images of 50 mM PhDY-Chol solution and TPEF images of 50 mM BODIPY-Chol solution were acquired continuously for 150 s (one acquisition every 30 s).

ACAT-1 = target: T1, ACAT-1 (Cricetulus griseus, UniProt Q60457); experiment: ACAT-1 inhibition (avasimibe) blocking probe storage into lipid droplets; assay type: cell-based, Chinese hamster; settings: CHO cells
T1 construct: endogenous in cells; host or cells: CHO-K1 cells
T1 sequence (Q60457 1-546): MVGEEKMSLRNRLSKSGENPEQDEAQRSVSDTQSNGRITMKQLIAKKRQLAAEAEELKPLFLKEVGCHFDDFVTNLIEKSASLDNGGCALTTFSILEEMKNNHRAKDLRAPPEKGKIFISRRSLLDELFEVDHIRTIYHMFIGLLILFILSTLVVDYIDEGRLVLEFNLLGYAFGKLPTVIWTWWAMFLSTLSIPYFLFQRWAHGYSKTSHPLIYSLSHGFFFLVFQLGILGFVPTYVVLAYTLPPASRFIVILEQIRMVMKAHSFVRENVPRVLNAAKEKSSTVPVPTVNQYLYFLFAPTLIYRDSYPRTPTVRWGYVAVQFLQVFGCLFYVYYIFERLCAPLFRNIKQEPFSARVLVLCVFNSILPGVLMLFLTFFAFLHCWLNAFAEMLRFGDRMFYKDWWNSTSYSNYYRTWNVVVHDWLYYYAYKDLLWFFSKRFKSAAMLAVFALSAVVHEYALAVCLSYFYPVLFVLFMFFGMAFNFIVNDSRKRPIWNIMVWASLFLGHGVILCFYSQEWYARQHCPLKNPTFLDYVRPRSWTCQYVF
Description: (§1) It is hypothesized that PhDY-Chol is converted into PhDY-cholesteryl ester, by ACAT-1, the enzyme responsible for cholesterol esterification, as diagrammed in FIG. 4. To confirm the esterification of PhDY-Chol, we inhibited ACAT-1 with avasimibe for 24 h before addition of PhDY-Chol. […] Although LDs were still visible, the amount of PhDY-Chol signal found inside LDs reduced by 4 times (FIG. 4d). […] To determine where PhDY-Chol accumulates after ACAT-1 inhibition, we stained the cells with LysoTracker for lysosomes. […] To emphasize the physiological compatibility of our PhDY tag, we treated CHO cells with BODIPY-cholesterol.
as §1, with “important to note that PhDY-Chol-rich structures inside the CHO cells could not be stained by filipin (FIG. 10b), implicating that it is not in the free form. We hypothesize” for “hypothesized”, “esterification (FIG. 4b).” for “esterification, as diagrammed in FIG. 4.”
ACAT-1 inhibition was used to block cholesterol esterification either by adding a potent ACAT inhibitor, avasimibe, or by RNA interference with ACAT-1 shRNA plasmid. […]
(§2) To quantify PhDY-rich area, we first selected one cell and used “Threshold” function to select PhDY-rich cellular regions using ImageJ. […] To quantify PhDY-rich LDs, “Image Calculator” function in ImageJ was used to multiply SRS image of PhDY-Chol by TPEF image of BODIPY. Then, after using “Threshold” function to select PhDY-rich LDs, the number of PhDY-rich LDs was counted by “Analyze Particles” function. For each group, 7 cells were analyzed, and results were shown as mean±standard deviation (SD). […]

CHO cells [2] = experiment: MTT cell-viability assay of tagged cholesterols; assay type: cell-based, Chinese hamster
Description: (§3) Referring now to FIG. 3, the cytotoxicity of cholesterol mimics was evaluated by MTT cell-viability assays after treating CHO cells with cholesterol mimic. Various concentrations of cholesterol mimic were added to the culture media and the cells were incubated for 48 hours before the assays were conducted. […] Adding a phenyl group reduced the cytotoxicity. To directly visualize the toxic effect, we stained the cells with propidium iodide for late apoptosis and necrosis.
(§4) To evaluate the cytotoxicity of tagged cholesterols, we performed MTT cell-viability assays after treating CHO cells with tagged cholesterol. […] To directly visualize the toxic effect, we stained the cells with propidium iodide for late apoptosis and necrosis. […] Based on the signal level and the severity of toxicity, we conclude that PhDY-Chol is the most suitable cholesterol probe for live cell imaging, and we used PhDY-Chol in subsequent experiments.
(§5) CHO cells were grown in 96-well plates with density of 4000 cells per well. The next day, the cells were treated with each cholesterol probe at the indicated concentrations for 48 h. Cell-viability was measured with the MTT colorimetric assay (Sigma).

[3] = MTT cell-viability assay of tagged cholesterols; assay type: cell-based, Chinese hamster; settings: Chinese hamster; CHO cells, 48 h incubation; read-out: IC50 (cytotoxicity, MTT cell viability)
Description: as §3, §4, §5

CHO cells [4] = experiment: Propidium iodide staining for late apoptosis and necrosis; assay type: cell-based, Chinese hamster; settings: 30 μM, 24 h
Description: as §3
as §4, with “cholesterol. Various concentrations of tagged cholesterol were added to the culture media and the cells were incubated for 48 h before the assays were conducted.” for “cholesterol.”
Propidium iodide was used to stain late apoptotic or necrotic cells. CHO cells were incubated with 30 μM of tagged cholesterol molecules for 24 h. The propidium iodide staining was performed following protocols provided by the manufacturer (Life Technologies).

M12 cells = experiment: HPβCD treatment of PhDY-Chol-labeled M12 cells; assay type: cell-based, Chinese hamster; settings: HPβCD 500 μM, 30 h
Description: (§6) We then treated the PhDY-Chol-labeled M12 cells with a cholesterol-mobilizing drug, hydroxypropyl-β-cyclodextrin (HPβCD). This drug is known to mediate lysosomal escape of cholesterol, and promote storage of excess cholesterol into LDs. […] These areas likely represent PhDY-cholesteryl ester stored in LDs. To confirm this possibility, we stained the cells with BODIPY for localization of LDs.
as §6, with “drug, HPβCD^40.” for “drug, hydroxypropyl-β-cyclodextrin (HPβCD).”, “into LDs^41.” for “into LDs.”
HPβCD was used as a drug treatment of NP-C disease. M12 cells were incubated with PhDY-Chol for 16 h as described above. […]
as §2

In the case of `CC1=CC(C)=[N+]2C1=C(CC[C@@H](C)[C@H]1CC[C@H]3[C@@H]4CC=C5C[C@@H](O)CC[C@]5(C)[C@H]4CC[C@]13C)c1c(C)cc(C)n1[B-]2(F)F` [BODIPY-cholesterol, reference compound], the “photostability / photo-bleaching of signal” value [1] is reported as “rapid photo-bleaching” and the “amount of probe incorporated into LDs after ACAT-1 inhibition” value (ACAT-1; ACAT-1 inhibited vs control) is reported as “did not change; also recorded: no difference between the two groups”.

With `C#CCC[C@@H](C)[C@H]1CC[C@H]2[C@@H]3CC=C4C[C@@H](O)CC[C@]4(C)[C@H]3CC[C@]12C` [A-Chol, alkyne cholesterol] the “cytotoxicity in MTT cell-viability assay” value (CHO cells [2]; CHO cells, various concentrations, 48 h) was “toxic to the cells”, the IC50 at 48 h [3] was 16 µM and the “late apoptosis and necrosis, propidium iodide staining” value (“late apoptosis and necrosis” for short) (CHO cells [4]) was “reduced density and extensive apoptosis”. The “late apoptosis and necrosis” value (CHO cells [4]; listed as alkyne-cholesterol) was “induces apoptosis and necrosis”.

With `C[C@H](CCC#Cc1ccccc1)[C@H]1CC[C@H]2[C@@H]3CC=C4C[C@@H](O)CC[C@]4(C)[C@H]3CC[C@]12C` [PhA-Chol, phenyl-alkyne cholesterol] the “late apoptosis and necrosis” value (CHO cells [4]) was “minimum cell death”.

In the case of `C[C@H](CCC#CC#Cc1ccccc1)[C@H]1CC[C@H]2[C@@H]3CC=C4C[C@@H](O)CC[C@]4(C)[C@H]3CC[C@]12C` [PhDY-Chol, phenyl-diyne cholesterol], the “photostability / photo-bleaching of signal” value [1] is reported as “No significant change of the SRS signal”, the “reduction of probe signal found inside LDs after ACAT-1 inhibition” value (ACAT-1; avasimibe 10 μM 24 h pre-treatment) is reported as 4 times and the “localization after ACAT-1 inhibition (LysoTracker staining)” value (ACAT-1; avasimibe treatment) is reported as “partially located in lysosomes”. The cytotoxicity (CHO cells [2]; 16 h incubation at 50 μM) was “did not cause cytotoxicity” and the “late apoptosis and necrosis” value (CHO cells [4]) was “minimum cell death”.

In the case of hydroxypropyl-β-cyclodextrin [HPβCD], the “amount of PhDY-Chol in M12 cells after treatment” value (M12 cells) is reported as “decreased by half” and the “number of PhDY-rich LDs after treatment” value (M12 cells; BODIPY staining) is reported as “increased significantly”.
